The results in this text go back to article PMC12606464, “Investigating NFE2L1 activators for targeted protein aggregate clearance: a follow-up study” (RSC Medicinal Chemistry, 2025).

Assay [1] has as its system chymotrypsin-like activity of the 26S proteasome. Put plainly: Proteasome activity assay in MCF7 cell lysates. In kind it is cell-based. Particulars: for Geometric mean, Treatment (Control = 1): MCF7, Figure S6. The procedure: (§1) Building on previous findings, we investigated how selected RUN compounds influence proteasomal function itself. Specifically, we examined the chymotrypsin-like activity of the 26S proteasome following a 16 hour treatment with 7.5 μM RUN compounds in the HEK293 cell line. […] In addition, two other cell lines, MCF7 and SH-SY5Y, were measured (see the SI, Fig. S6).
(§2) Figure S6: RUN compounds enhance chymotrypsin-like activity of the 26S proteasome in […]
(§3) Cells were treated with 5 µM RUN compounds for 16 hours, with DMSO (0.5%) as the vehicle control. Proteasome chymotrypsin-like activity was measured in cell lysates at 37 °C. Four independent experiments were conducted. Statistical analysis was performed using ratio paired t-tests corrected for multiple comparisons with the Holm-Šídák's method (α = 0.05). Detailed results of the analysis are shown in Supplementary Table S16. […]
(§4) 2.7 Proteasome activity assay
(§5) The corresponding cell lines (HEK293, MCF7, or SH-SY5Y) were seeded into 6-well plates and allowed to adhere overnight under standard culture conditions. On the following day, HEK293 cells were treated with 7.5 µM RUN compounds, whereas MCF7 and SH-SY5Y cells were treated with 5 µM RUN compounds, for 16 hours each. After treatment, cells were harvested, resuspended in lysis buffer (50 mM HEPES, pH 7.5; 5 mM EDTA; 150 mM NaCl; 2 mM ATP; 1% Triton), and centrifuged at 15,000 rpm for 15 minutes at 4 °C. The resulting lysates (25 µg total protein) were incubated with 200 µM of the fluorogenic substrate Suc-Leu-Leu-Val-Tyr-AMC (Bachem, I1395) in assay buffer (50 mM Tris, pH 8.0; 10 mM MgCl₂; 1 mM ATP; 1 mM DTT) at 37 °C. Free AMC release was detected by measuring fluorescence at 360/460 nm. Results of RUN compounds were compared to the DMSO control using a ratio paired t-test corrected for multiple comparisons with the Holm-Šídák's method (α = 0.05) in GraphPad Prism (v 10.6.1).
(§6) 2.8 XBP1-endoplasmic reticulum (ER) stress reporter assay […]
(§7) Two sets of comparisons: 1) […]
(§8) treatment with MG132 inhibitor or RUN compounds with DMSO control, 2) RUN compounds vs MG132, were done by two-way repeated-measures ANOVA with Geisser–Greenhouse correction, followed by Dunnett’s multiple comparisons test with individual variances in […]
(§9) HCT116 parental cells (WT) and two independent DDI2 knockout clones (KO 04 and KO 11), in which NFE2L1 activation is impaired, were transiently transfected with plasmids encoding either a non-aggregating EGFP-HttQ23 or an aggregation-prone EGFP-HttQ74 construct using Lipofectamine 2000 (Thermo Fisher Scientific) according to the manufacturer’s

Assay [2] has the same test system. The assay can be described thus: Proteasome activity assay in SH-SY5Y cell lysates. In kind it is cell-based, human. The conditions noted are these: for Geometric mean, Treatment (Control = 1): SH-SY5Y, Figure S6. The procedure:
as §1, §2, §3, §4, §5, §6, §7, §8, §9

For assay [3], the system named is NFE2L1-dependent gene expression. The assay can be described thus: Quantitative RT-PCR of NFE2L1-dependent genes in HEK293 cells. The conditions noted are these: 7.5 μM, 16 h; for DNAJA1 mRNA, geometric mean (treatment) / HSPA1A mRNA, geometric mean (treatment) / NQO1 mRNA, geometric mean (treatment) / PSMC4 mRNA, geometric mean (treatment) / PSMD12 mRNA, geometric mean (treatment) / SQSTM1 mRNA, geometric mean (treatment): HEK293, normalized to RPLP0, DMSO control = 1; for DNAJA1 mRNA, geometric mean of ratios / HSPA1A mRNA, geometric mean of ratios / NQO1 mRNA, geometric mean of ratios / PSMC4 mRNA, geometric mean of ratios / PSMD12 mRNA, geometric mean of ratios / SQSTM1 mRNA, geometric mean of ratios: treatment/control, ratio paired t test, HEK293. In kind it is cell-based, human. The procedure:
NFE2L1 enhances the transcription of genes encoding proteasome subunits and molecular chaperones such as heat shock proteins (HSPs). To evaluate whether this effect is elicited by RUN compounds, we performed quantitative real-time PCR (RT-qPCR) analysis in HEK293 cells treated with selected RUN compounds (Fig. 2A).[28,53–55]
Fig. 2 (A) qPCRs of HEK293 cells treated with RUN compounds (7.5 μM) for 16 hours. The extracted RNA was reverse transcribed into cDNA and utilized for RT-qPCR (primers are listed in the SI, Table S1); the mRNA levels of RPLP0 were used for normalization. The experiment was performed in three biological replicates (n = 3). (B) Immunoblot analysis of proteins NFE2L1/TCF11/NRF1, SQSTM1/p62, LC3, NQO1 and HSPA1A/HSP70-1 in HEK293 cells after 16 h treatment with 7.5 μM RUN compounds. The protein levels were quantified by measuring the integrated fluorescence of the corresponding protein bands and normalized to the β-actin load. The full-length (F) and cleaved (C) forms of NFE2L1 were analyzed together. The experiment was performed in four biological replicates (n = 4) except for NFE2L1 (n = 3). (A and B) Results of RUN compounds were compared to the DMSO control using ratio paired t-tests corrected for multiple comparisons with Holm–Šídák's method (α = 0.05). *p < 0.05, **p < 0.01. Detailed results of the analysis are shown in SI Tables S5 and S6. […]
HEK-293 cells were seeded into 12 -well plates and allowed to adhere overnight under standard culture conditions. On the following day, cells were treated with the indicated test compounds or DMSO vehicle control for 16 h. After treatment, cells were lysed directly in the wells, and the resulting lysates were collected for downstream RNA extraction. RNA was extracted using the RNeasy® Plus Micro Kit according to the manufacturer’s instructions. Complementary DNA (cDNA) was synthesized from RNA using either t he TATAA GrandScript cDNA Supermix (TATAA Biocenter) or the QuantiTect® Reverse Transcription Kit (Qiagen), following the respective protocols. Quantitative RT -PCR was performed on a LightCycler® 480 instrument (Roche Life Science) using the TATAA SYBR® Gr andMaster® Mix (TATAA […]
Biocenter). Gene expression levels were normalized to RPLP0, and relative expression was calculated using the ΔΔCt method. Data were expressed as fold change relative to the corresponding DMSO control. Statistical analysis of changes in gene expression was performed w ith a ratio paired t-test corrected for multiple comparisons using Holm-Šídák's method (α = 0.05) in GraphPad Prism (v 10.6.1).
Table S1. Sequences of primer pairs used in the qRT -PCR analysis of gene expression.

With `COc1ccc(/C=C2\CC(N)C/C(=C\c3ccc(OC)c(OC)c3)C2=O)cc1OC` (stereo not shown) [RUN-81], the “Geometric mean, Treatment (Control = 1)” value in assay [1] amounted to 1.11. The “Geometric mean, Treatment (Control = 1)” value in assay [2] worked out at 1.28. Further, in assay [3], the “DNAJA1 mRNA, geometric mean (treatment)” value is reported as 3.68; the “HSPA1A mRNA, geometric mean (treatment)” value is 8.57; the “NQO1 mRNA, geometric mean (treatment)” value came out at 2.23; the “PSMC4 mRNA, geometric mean (treatment)” value stood at 4.76. Further, in assay [3], the “PSMD12 mRNA, geometric mean (treatment)” value is 3.37; the “SQSTM1 mRNA, geometric mean (treatment)” value turned out to be 4.15; the “DNAJA1 mRNA, geometric mean of ratios” value worked out at 3.68; the “HSPA1A mRNA, geometric mean of ratios” value is given as 8.57. Moreover, in assay [3], the “NQO1 mRNA, geometric mean of ratios” value is 2.23; the “PSMC4 mRNA, geometric mean of ratios” value is on record as 4.76; the “PSMD12 mRNA, geometric mean of ratios” value was found to be 3.37; the “SQSTM1 mRNA, geometric mean of ratios” value turned out to be 4.15.
For `COc1ccc(/C=C2\CC(NC(=O)c3ccccn3)C/C(=C\c3ccc(OC)c(OC)c3)C2=O)cc1OC` (stereo not shown) [RUN-94], the “Geometric mean, Treatment (Control = 1)” value in assay [1] is 1.26. Further, the “Geometric mean, Treatment (Control = 1)” value in assay [2] was found to be 1.50. For the same molecule, in assay [3], the “DNAJA1 mRNA, geometric mean (treatment)” value amounted to 6.57; the “NQO1 mRNA, geometric mean (treatment)” value worked out at 2.85; the “PSMC4 mRNA, geometric mean (treatment)” value was 1.37; the “PSMD12 mRNA, geometric mean (treatment)” value turned out to be 4.22. Moreover, in assay [3], the “SQSTM1 mRNA, geometric mean (treatment)” value was found to be 6.10; the “DNAJA1 mRNA, geometric mean of ratios” value worked out at 6.57; the “HSPA1A mRNA, geometric mean of ratios” value is 8.20; the “NQO1 mRNA, geometric mean of ratios” value is given as 2.85. For the same molecule, in assay [3], the “PSMC4 mRNA, geometric mean of ratios” value was determined as 1.37; the “PSMD12 mRNA, geometric mean of ratios” value is given as 4.22; the “SQSTM1 mRNA, geometric mean of ratios” value came to 6.10.
Regarding `COc1ccc(/C=C2\CC(NC(=O)C3CCCC3)C/C(=C\c3ccc(OC)c(OC)c3)C2=O)cc1OC` (stereo not shown) [RUN-89], in assay [1] (5 μM, 16 h), the “Proteasome chymotrypsin-like activity in MCF-7 cells” value is given as “greatest increase”. Moreover, the “Geometric mean, Treatment (Control = 1)” value in assay [1] is on record as 1.38. Besides, the “Proteasome chymotrypsin-like activity in SH-SY5Y cells” value in assay [2] (5 μM, 16 h) is recorded as “higher median for RUN-89 without reaching statistical significance”. Moreover, in assay [2], the “Geometric mean, Treatment (Control = 1)” value was 1.88. Besides, in assay [3], the “DNAJA1 mRNA, geometric mean (treatment)” value is reported as 7.60; the “HSPA1A mRNA, geometric mean (treatment)” value was determined as 8.85; the “NQO1 mRNA, geometric mean (treatment)” value is given as 2.73; the “PSMC4 mRNA, geometric mean (treatment)” value is on record as 2.21. In addition, in assay [3], the “PSMD12 mRNA, geometric mean (treatment)” value is on record as 5.14; the “SQSTM1 mRNA, geometric mean (treatment)” value stood at 5.22; the “DNAJA1 mRNA, geometric mean of ratios” value was 7.60; the “HSPA1A mRNA, geometric mean of ratios” value was 8.85. For the same molecule, in assay [3], the “NQO1 mRNA, geometric mean of ratios” value is 2.73; the “PSMC4 mRNA, geometric mean of ratios” value turned out to be 2.21; the “PSMD12 mRNA, geometric mean of ratios” value worked out at 5.14; the “SQSTM1 mRNA, geometric mean of ratios” value stood at 5.22.
